Assay results from the supplement of paper PMC10307832.

Key:
Experiment in all cases: relative viability (nuclei count vs DMSO), 5 days (fraction); higher = more cells survive
[1] = tested on: BEN
In short: (§1)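 One day after seeding in 1536-well plates, lung cancer cell lines were dosed by pin tool. Dosing was either single-drug or a fixed anchor-drug dose plus five library-drug doses (not always all listed) in √10 steps. After 5 days, nuclei were stained in one fix-and-stain step and counted on 4× images, and relative viability is the nuclei count of treated wells over that of vehicle wells, given as the median of duplicate plates.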

[2] = tested on: HCC-827
In short: as §1

[3] = tested on: LK-2
In short: as §1

[4] = tested on: NCI-H1650
In short: as §1

[5] = tested on: NCI-H1792
In short: as §1

[6] = tested on: SW 1573
In short: as §1

[7] = tested on: LOU-NH91
In short: as §1

[8] = tested on: COR-L 105
In short: as §1

[9] = tested on: SK-MES-1
In short: as §1

[10] = tested on: NCI-H2126
In short: as §1

[11] = tested on: LU99A
In short: as §1

[12] = tested on: HCC-78
In short: as §1

[13] = tested on: LCLC-97TM1
In short: as §1

[14] = tested on: EMC-BAC-2
In short: as §1

[15] = tested on: NCI-H727
In short: as §1

[16] = tested on: NCI-H1734
In short: as §1

[17] = tested on: EKVX
In short: as §1

[18] = tested on: ChaGo-K-1
In short: as §1

[19] = tested on: NCI-H2087
In short: as §1

[20] = tested on: EPLC-272H
In short: as §1

[21] = tested on: RERF-LC-KJ
In short: as §1

[22] = tested on: NCI-H358
In short: as §1

[23] = tested on: NCI-H1944
In short: as §1

O=C(O)CCCCC(CCSCc1ccccc1)SCc1ccccc1 (stereo not drawn) [CPI-613] + CC(=O)Nc1cccc(-n2c(=O)n(C3CC3)c(=O)c3c(Nc4ccc(I)cc4F)n(C)c(=O)c(C)c32)c1 [Trametinib] (partner 0.02 µM)
relative viability ([1]; first compound 5 µM): 1.14
relative viability ([1]; first compound 15.81 µM): 0.976
relative viability ([1]; first compound 50 µM): 0.958
relative viability ([1]; first compound 158.11 µM): 0.804
relative viability ([1]; first compound 500 µM): 0.905
relative viability ([2]; first compound 5 µM): 0.518
relative viability ([2]; first compound 15.81 µM): 0.555
relative viability ([2]; first compound 50 µM): 0.571
relative viability ([2]; first compound 158.11 µM): 0.518
relative viability ([2]; first compound 500 µM): 0.483
relative viability ([3]; first compound 5 µM): 0.702
relative viability ([3]; first compound 15.81 µM): 0.786
relative viability ([3]; first compound 50 µM): 0.93
relative viability ([3]; first compound 158.11 µM): 0.856
relative viability ([3]; first compound 500 µM): 0.792
relative viability ([4]; first compound 5 µM): 0.546
relative viability ([4]; first compound 15.81 µM): 0.548
relative viability ([4]; first compound 50 µM): 0.537
relative viability ([4]; first compound 158.11 µM): 0.168
relative viability ([4]; first compound 500 µM): 0.0145
relative viability ([5]; first compound 5 µM): 0.381
relative viability ([5]; first compound 15.81 µM): 0.372
relative viability ([5]; first compound 50 µM): 0.355
relative viability ([5]; first compound 158.11 µM): 0.291
relative viability ([5]; first compound 500 µM): 0.0761
relative viability ([6]; first compound 5 µM): 0.557
relative viability ([6]; first compound 15.81 µM): 0.433
relative viability ([6]; first compound 50 µM): 0.482
relative viability ([6]; first compound 158.11 µM): 0.133
relative viability ([6]; first compound 500 µM): 0.0735
relative viability ([7]; first compound 5 µM): 0.767
relative viability ([7]; first compound 15.81 µM): 0.723
relative viability ([7]; first compound 50 µM): 0.775
relative viability ([7]; first compound 158.11 µM): 0.775
relative viability ([7]; first compound 500 µM): 0.674
relative viability ([8]; first compound 5 µM): 0.459
relative viability ([8]; first compound 15.81 µM): 0.437
relative viability ([8]; first compound 50 µM): 0.479
relative viability ([8]; first compound 158.11 µM): 0.355
relative viability ([8]; first compound 500 µM): 0.225
relative viability ([9]; first compound 5 µM): 0.534
relative viability ([9]; first compound 15.81 µM): 0.49
relative viability ([9]; first compound 50 µM): 0.523
relative viability ([9]; first compound 158.11 µM): 0.201
relative viability ([9]; first compound 500 µM): 0.132
relative viability ([10]; first compound 5 µM): 0.528
relative viability ([10]; first compound 15.81 µM): 0.538
relative viability ([10]; first compound 50 µM): 0.615
relative viability ([10]; first compound 158.11 µM): 0.232
relative viability ([10]; first compound 500 µM): 0.193
relative viability ([11]; first compound 5 µM): 0.51
relative viability ([11]; first compound 15.81 µM): 0.524
relative viability ([11]; first compound 50 µM): 0.461
relative viability ([11]; first compound 158.11 µM): 0.338
relative viability ([11]; first compound 500 µM): 0.357
relative viability ([12]; first compound 15.81 µM): 0.729
relative viability ([12]; first compound 50 µM): 0.788
relative viability ([12]; first compound 158.11 µM): 0.714
relative viability ([12]; first compound 500 µM): 0.716
relative viability ([13]; first compound 5 µM): 0.202
relative viability ([13]; first compound 15.81 µM): 0.162
relative viability ([13]; first compound 50 µM): 0.153
relative viability ([13]; first compound 158.11 µM): 0.0713
relative viability ([13]; first compound 500 µM): 0.0622
relative viability ([14]; first compound 5 µM): 0.928
relative viability ([14]; first compound 15.81 µM): 0.884
relative viability ([14]; first compound 50 µM): 0.906
relative viability ([14]; first compound 158.11 µM): 0.521
relative viability ([14]; first compound 500 µM): 0.639
relative viability ([15]; first compound 5 µM): 0.393
relative viability ([15]; first compound 15.81 µM): 0.389
relative viability ([15]; first compound 50 µM): 0.396
relative viability ([15]; first compound 158.11 µM): 0.374
relative viability ([15]; first compound 500 µM): 0.339
relative viability ([16]; first compound 5 µM): 0.615
relative viability ([16]; first compound 15.81 µM): 0.631
relative viability ([16]; first compound 50 µM): 0.593
relative viability ([16]; first compound 158.11 µM): 0.482
relative viability ([16]; first compound 500 µM): 0.101
relative viability ([17]; first compound 5 µM): 0.287
relative viability ([17]; first compound 15.81 µM): 0.272
relative viability ([17]; first compound 50 µM): 0.343
relative viability ([17]; first compound 500 µM): 0.325
relative viability ([18]; first compound 5 µM): 0.853
relative viability ([18]; first compound 15.81 µM): 0.876
relative viability ([18]; first compound 50 µM): 0.847
relative viability ([18]; first compound 158.11 µM): 0.29
relative viability ([18]; first compound 500 µM): 0.391
relative viability ([19]; first compound 5 µM): 0.207
relative viability ([19]; first compound 15.81 µM): 0.16
relative viability ([19]; first compound 50 µM): 0.159
relative viability ([19]; first compound 158.11 µM): 0.0653
relative viability ([19]; first compound 500 µM): 0.003
relative viability ([20]; first compound 5 µM): 0.233
relative viability ([20]; first compound 15.81 µM): 0.232
relative viability ([20]; first compound 50 µM): 0.29
relative viability ([20]; first compound 158.11 µM): 0.222
relative viability ([20]; first compound 500 µM): 0.268
relative viability ([21]; first compound 5 µM): 0.76
relative viability ([21]; first compound 15.81 µM): 0.878
relative viability ([21]; first compound 50 µM): 0.845
relative viability ([21]; first compound 158.11 µM): 0.458
relative viability ([21]; first compound 500 µM): 0.44
relative viability ([22]; first compound 5 µM): 0.132
relative viability ([22]; first compound 15.81 µM): 0.133
relative viability ([22]; first compound 50 µM): 0.132
relative viability ([22]; first compound 158.11 µM): 0.0921
relative viability ([22]; first compound 500 µM): 0.0459
relative viability ([23]; first compound 5 µM): 0.427
relative viability ([23]; first compound 15.81 µM): 0.398
relative viability ([23]; first compound 50 µM): 0.412
relative viability ([23]; first compound 158.11 µM): 0.259
relative viability ([23]; first compound 500 µM): 0.28
